Laboratory results: the supplement of paper PMC10307832

Experiments:
Experiment in all cases: relative viability (nuclei count vs DMSO), 5 days (fraction); higher = more cells survive
GSK-J4 + Foretinib = compound: CCOC(=O)CCNc1cc(N2CCc3ccccc3CC2)nc(-c2ccccn2)n1 [GSK-J4] + COc1cc2c(Oc3ccc(NC(=O)C4(C(=O)Nc5ccc(F)cc5)CC4)cc3F)ccnc2cc1OCCCN1CCOCC1 [Foretinib] (partner 0.25 µM)
Outline: (§1)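 Lung cancer cell lines in 1536-well plates got either a single drug or a fixed anchor-drug dose together with five library-drug doses (not always all listed) in √10 steps, by pin tool, on the day after seeding. Nuclei were counted after 5 days, and relative viability is the treated-to-vehicle ratio of nuclei counts. Values are medians of duplicate plates.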

GSK-J4 + Lapatinib = compound: CCOC(=O)CCNc1cc(N2CCc3ccccc3CC2)nc(-c2ccccn2)n1 [GSK-J4] + CS(=O)(=O)CCNCc1ccc(-c2ccc3ncnc(Nc4ccc(OCc5cccc(F)c5)c(Cl)c4)c3c2)o1 [Lapatinib] (partner 2 µM)
Outline: as §1

AZ3146 + OSI-027 = compound: CN1CCC(CC1)OC2=CC(=C(C=C2)NC3=NC=C4C(=N3)N(C(=O)N4C)C5CCCC5)OC [AZ3146] + COc1cccc2cc(-c3nc([C@H]4CC[C@H](C(=O)O)CC4)n4ncnc(N)c34)[nH]c12 [OSI-027] (partner 0.5 µM)
Outline: as §1

AZ3146 + AZD7762 = compound: CN1CCC(CC1)OC2=CC(=C(C=C2)NC3=NC=C4C(=N3)N(C(=O)N4C)C5CCCC5)OC [AZ3146] + NC(=O)Nc1cc(-c2cccc(F)c2)sc1C(=O)N[C@H]1CCCNC1 [AZD7762] (partner 0.2 µM)
Outline: as §1

Row | Cell Line | relative viability (GSK-J4 + Foretinib; first compound 0.5 µM) | relative viability (GSK-J4 + Foretinib; first compound 1.581 µM) | relative viability (GSK-J4 + Foretinib; first compound 5 µM) | relative viability (GSK-J4 + Foretinib; first compound 15.81 µM) | relative viability (GSK-J4 + Foretinib; first compound 50 µM) | relative viability (GSK-J4 + Lapatinib; first compound 0.5 µM) | relative viability (GSK-J4 + Lapatinib; first compound 1.581 µM) | relative viability (GSK-J4 + Lapatinib; first compound 5 µM) | relative viability (GSK-J4 + Lapatinib; first compound 15.81 µM) | relative viability (GSK-J4 + Lapatinib; first compound 50 µM) | relative viability (AZ3146 + OSI-027; first compound 0.08 µM) | relative viability (AZ3146 + OSI-027; first compound 0.253 µM) | relative viability (AZ3146 + OSI-027; first compound 0.8 µM) | relative viability (AZ3146 + OSI-027; first compound 2.53 µM) | relative viability (AZ3146 + OSI-027; first compound 8 µM) | relative viability (AZ3146 + AZD7762; first compound 0.08 µM) | relative viability (AZ3146 + AZD7762; first compound 0.253 µM) | relative viability (AZ3146 + AZD7762; first compound 0.8 µM) | relative viability (AZ3146 + AZD7762; first compound 2.53 µM) | relative viability (AZ3146 + AZD7762; first compound 8 µM)
1 | NCI-H1993 | 0.789 | 0.74 | 0.796 | 0.556 | 0.549 | 0.837 | 0.878 | 0.927 | 0.808 | 0.671 | 0.531 | 0.579 | 0.541 | 0.531 | 0.543 | 0.662 | 0.695 | 0.812 | 1.01 | 0.581
2 | NCI-H2085 | 0.697 | 0.882 | 0.861 | 1.05 | 0.971 | 0.696 | 0.679 | 0.77 | 0.615 | 0.397 | 0.614 | 0.648 | 0.649 | 0.852 | 0.475 | 0.912 | 0.974 | 0.95 | 1.04 | 0.708
3 | NCI-H2087 | 0.973 | – | 1.13 | 1.1 | 0.818 | 0.794 | 0.514 | – | 1.01 | 0.57 | 0.54 | 0.656 | 0.469 | 0.674 | 0.525 | 1.18 | 1.36 | 1.22 | 1.38 | 1.16
4 | NCI-H2126 | 1.06 | 1.05 | 1.14 | 0.889 | 0.795 | 0.817 | 0.657 | 0.854 | 0.69 | 0.59 | 0.6 | 0.706 | 0.537 | 0.784 | 0.649 | 0.932 | 1 | 0.948 | 1.16 | 0.998
5 | NCI-H2170 | 0.949 | 0.983 | 0.917 | 1.02 | 0.958 | 0.311 | 0.247 | 0.265 | 0.261 | 0.22 | 0.676 | 0.66 | 0.66 | 0.713 | 0.713 | 0.85 | 0.889 | 0.871 | 0.814 | 0.713
6 | NCI-H2347 | 1.16 | 0.716 | 1.06 | 0.843 | 0.826 | 0.841 | 0.573 | 0.753 | 0.963 | 0.664 | 0.245 | 0.452 | 0.48 | 0.293 | 0.466 | 0.577 | 0.934 | 0.649 | 0.746 | 0.677
7 | NCI-H2405 | 1.06 | 0.948 | – | 0.98 | 1.04 | 1.15 | 1.03 | – | 1.09 | 1.17 | 0.652 | 0.62 | 0.582 | 0.696 | 0.641 | 0.838 | 0.771 | 0.702 | 0.589 | 0.618
8 | NCI-H3122 | 0.983 | 1.01 | 0.938 | 1.05 | 0.969 | 0.966 | 0.989 | 1 | 0.964 | 0.911 | 1.07 | 1.03 | 0.776 | 0.92 | 0.729 | 1.01 | 0.933 | 0.966 | 1.06 | 0.973
9 | PC-3 [JPC-3] | 0.96 | 1.01 | 1.01 | 0.959 | 0.762 | 0.47 | 0.385 | 0.578 | 0.43 | 0.427 | 0.624 | 0.792 | 0.789 | 0.77 | 0.776 | 0.734 | – | 0.797 | 0.813 | 0.754
10 | PC-14 | 0.902 | 0.832 | 0.794 | 0.926 | 0.963 | 0.351 | 0.228 | 0.344 | 0.249 | 0.323 | 0.805 | 0.784 | 0.741 | 0.853 | 0.185 | 0.343 | 0.355 | 0.415 | 0.382 | 0.294
11 | RERF-LC-KJ | 0.824 | 0.796 | 0.882 | 0.803 | 0.852 | 0.843 | 0.802 | 0.749 | 0.788 | 0.734 | 0.669 | 0.548 | 0.571 | 0.575 | 0.398 | 0.879 | 0.61 | 0.883 | 0.976 | 0.972
